Test results as given in ChEMBL document CHEMBL4699662, “Identification and structure-activity relationship studies of small molecule inhibitors of the human cathepsin D” (Bioorg Med Chem, 2021).

Key:
in vitro [1] = details: mouse, liver microsomes
in vitro [2] = details: human, liver microsomes

Row | Compound | microsomal CLint at 0.5 h, 1 µM (in vitro [1]) | microsomal CLint at 0.5 h, 1 µM (in vitro [2])
1 | COc1ccc(CC(=O)NC(=N)N[C@H](CC2CCCCC2)C(=O)Nc2cc(S(=O)(=O)N3CCOCC3)ccc2C)cc1OC | 237 µL/min/mg | 212 µL/min/mg
2 | CNS(=O)(=O)c1ccc(C)c(NC(=O)[C@@H](CC2CCCCC2)NC(=N)NC(=O)Cc2ccc(OC)c(OC)c2)c1 | 177 µL/min/mg | 177 µL/min/mg
3 | CNS(=O)(=O)c1ccc(C)c(NC(=O)[C@@H](CC2CCCCC2)NC(=N)NC(=O)Cc2ccc(Cl)c(Cl)c2)c1 | 176 µL/min/mg | 336 µL/min/mg
4 | CNS(=O)(=O)c1ccc(C)c(NC(=O)[C@@H](Cc2ccccc2)NC(=N)NC(=O)Cc2ccc(OC)c(OC)c2)c1 | 149 µL/min/mg | 131 µL/min/mg
5 | COc1ccc(CC(=O)NC(=N)N[C@H](CSC)C(=O)Nc2cc(S(N)(=O)=O)ccc2C)cc1OC | 197 µL/min/mg | 187 µL/min/mg
6 | COCC[C@@H](NC(=N)NC(=O)Cc1ccc(OC)c(OC)c1)C(=O)Nc1cc(S(N)(=O)=O)ccc1C | 57.3 µL/min/mg | 43.1 µL/min/mg
7 | COc1ccc(CC(=O)NC(=N)N[C@H](C)C(=O)Nc2cc(S(N)(=O)=O)ccc2C)cc1OC | 50.6 µL/min/mg | 27.8 µL/min/mg
8 | COc1ccc(CC(=O)NC(=N)N[C@H](CO)C(=O)Nc2cc(S(N)(=O)=O)ccc2C)cc1OC | 15.5 µL/min/mg | 22.5 µL/min/mg
9 | CCCC[C@@H](NC(=N)NC(=O)Cc1ccc(OC)c(OC)c1)C(=O)Nc1cc(S(N)(=O)=O)ccc1C | 231 µL/min/mg | 215 µL/min/mg
10 | Cc1ccc(S(=O)(=O)N(C)C)cc1NC(=O)[C@@H](CC1CCCCC1)NC(=N)NC(=O)Cc1ccc(C(F)(F)F)cc1 | 282 µL/min/mg | 291 µL/min/mg
11 | CCOC[C@@H](NC(=N)NC(=O)Cc1ccc(OC)c(OC)c1)C(=O)Nc1cc(S(N)(=O)=O)ccc1C | 86.8 µL/min/mg | 59.1 µL/min/mg
12 | COc1ccc(CC(=O)NC(=N)N[C@H](CC2CCCCC2)C(=O)Nc2cc(S(N)(=O)=O)ccc2C)cc1OC | 161 µL/min/mg | 171 µL/min/mg
13 | COc1ccc(CC(=O)NC(=N)N[C@H](C(=O)Nc2cc(S(N)(=O)=O)ccc2C)C2CCCC2)cc1OC | 179 µL/min/mg | 174 µL/min/mg
14 | CNS(=O)(=O)c1ccc(C)c(NC(=O)[C@H](NC(=N)NC(=O)Cc2ccc(OC)c(OC)c2)C2CCCCC2)c1 | 173 µL/min/mg | 211 µL/min/mg
15 | Cc1ccc(S(=O)(=O)N(C)C)cc1NC(=O)[C@@H](CC1CCCCC1)NC(=N)NC(=O)Cc1cccc(C#N)c1 | 250 µL/min/mg | 287 µL/min/mg
16 | Cc1ccc(S(=O)(=O)N(C)C)cc1NC(=O)[C@@H](CC1CCCCC1)NC(=N)NC(=O)Cc1cc(C(F)(F)F)cc(C(F)(F)F)c1 | 258 µL/min/mg | 246 µL/min/mg
17 | COc1ccc(CC(=O)NC(=N)N[C@H](CC2CCCCC2)C(=O)Nc2cc(S(=O)(=O)NC3CC3)ccc2C)cc1OC | 354 µL/min/mg | 179 µL/min/mg
18 | COc1ccc(CC(=O)NC(=N)N[C@H](Cc2cc3ccccc3s2)C(=O)Nc2cc(S(N)(=O)=O)ccc2C)cc1OC | 239 µL/min/mg | 251 µL/min/mg
19 | CC[C@@H](NC(=N)NC(=O)Cc1ccc(OC)c(OC)c1)C(=O)Nc1cc(S(N)(=O)=O)ccc1C | 118 µL/min/mg | 55.1 µL/min/mg

Row | Compound | microsomal CLint at 0.5 h, 1 µM (in vitro [1]) | microsomal CLint at 0.5 h, 1 µM (in vitro [2])
20 | CNS(=O)(=O)c1ccc(C)c(NC(=O)[C@H](NC(=N)NC(=O)Cc2ccc(OC)c(OC)c2)C(C)C)c1 | 104 µL/min/mg | 179 µL/min/mg
21 | Cc1ccc(S(=O)(=O)N(C)C)cc1NC(=O)[C@@H](CC1CCCCC1)NC(=N)NC(=O)C1CCCc2ccccc21 (some centres not stated) | 259 µL/min/mg | 237 µL/min/mg
22 | COc1ccc(CC(=O)NC(=N)N[C@H](CCSC)C(=O)Nc2cc(S(N)(=O)=O)ccc2C)cc1OC | 297 µL/min/mg | 262 µL/min/mg
23 | COc1ccc(CC(=O)NC(=N)N[C@H](CC2CCCCC2)C(=O)Nc2cc(S(=O)(=O)NC3CCCCC3)ccc2C)cc1OC | 232 µL/min/mg | 326 µL/min/mg
24 | COc1ccc(CC(=O)NC(=N)N[C@H](Cc2ccccc2)C(=O)Nc2cc(S(N)(=O)=O)ccc2C)cc1OC | 193 µL/min/mg | 191 µL/min/mg
25 | COc1ccc(CC(=O)NC(=N)N[C@H](Cn2cc(-c3ccccc3)nn2)C(=O)Nc2cc(S(N)(=O)=O)ccc2C)cc1OC | 367 µL/min/mg | 340 µL/min/mg
26 | COc1ccc(CC(=O)NC(=N)N[C@H](CC2CCCCC2)C(=O)Nc2cc(S(=O)(=O)N3CCN(C)CC3)ccc2C)cc1OC | 212 µL/min/mg | 271 µL/min/mg
27 | CNS(=O)(=O)c1ccc(C)c(NC(=O)[C@H](CC2CCCCC2)NC(=N)NC(=O)Cc2ccc(OC)c(OC)c2)c1 | 180 µL/min/mg | 176 µL/min/mg
28 | CNS(=O)(=O)c1ccc(C)c(NC(=O)[C@@H](CC2CCCCC2)NC(=N)NC(=O)Cc2cc(Cl)cc(C(F)(F)F)c2)c1 | 220 µL/min/mg | 239 µL/min/mg
29 | CCN(CC)S(=O)(=O)c1ccc(C)c(NC(=O)[C@@H](CC2CCCCC2)NC(=N)NC(=O)Cc2ccc(OC)c(OC)c2)c1 | 227 µL/min/mg | 221 µL/min/mg
30 | COc1ccc(CC(=O)NC(=N)N[C@H](CC2CCCCC2)C(=O)Nc2cc(N(S(C)(=O)=O)S(C)(=O)=O)ccc2C)cc1OC | 165 µL/min/mg | 186 µL/min/mg
31 | COc1ccc(CC(=O)NC(=N)N[C@H](CC2CCCCC2)C(=O)Nc2cc(S(=O)(=O)N(C)C)ccc2C)cc1OC | 226 µL/min/mg | 204 µL/min/mg
32 | COc1ccc(CC(=O)NC(=N)N[C@H](Cc2ccccc2F)C(=O)Nc2cc(S(N)(=O)=O)ccc2C)cc1OC | 149 µL/min/mg | 171 µL/min/mg
33 | CNS(=O)(=O)c1ccc(C)c(NC(=O)[C@@H](CC2CCCCC2)NC(=N)NC(=O)Cc2ccc(S(C)(=O)=O)cc2)c1 | 208 µL/min/mg | 241 µL/min/mg
34 | CNS(=O)(=O)c1ccc(C)c(NC(=O)[C@@H](CC2CCCCC2)NC(=N)NC(=O)Cc2cc(Cl)cc(OC)c2)c1 | 212 µL/min/mg | 212 µL/min/mg
35 | COc1ccc(CC(=O)NC(=N)N[C@H](CC2CCCCC2)C(=O)Nc2cc(S(=O)(=O)N(C)C)ccc2C)cc1F | 241 µL/min/mg | 241 µL/min/mg
36 | CNS(=O)(=O)c1ccc(C)c(NC(=O)[C@H](NC(=N)NC(=O)Cc2ccc(OC)c(OC)c2)c2ccccc2)c1 | 270 µL/min/mg | 281 µL/min/mg
37 | CNS(=O)(=O)c1ccc(C)c(NC(=O)[C@@H](C)NC(=N)NC(=O)Cc2ccc(OC)c(OC)c2)c1 | 220 µL/min/mg | 134 µL/min/mg
38 | COc1ccc(CC(=O)NC(=N)N[C@H](CC2CCCCC2)C(=O)Nc2cc(S(=O)(=O)N(C(C)C)C(C)C)ccc2C)cc1OC | 259 µL/min/mg | 259 µL/min/mg

Row | Compound | microsomal CLint at 0.5 h, 1 µM (in vitro [1]) | microsomal CLint at 0.5 h, 1 µM (in vitro [2])
39 | COC[C@@H](NC(=N)NC(=O)Cc1ccc(OC)c(OC)c1)C(=O)Nc1cc(S(N)(=O)=O)ccc1C | 47.2 µL/min/mg | 26.9 µL/min/mg
40 | COc1ccc(CC(=O)NC(=N)N[C@H](CC2CCCCC2)C(=O)Nc2cc(S(=O)(=O)NC(C)C)ccc2C)cc1OC | 240 µL/min/mg | 277 µL/min/mg
41 | NC(=O)N1c2ccccc2C=Cc2ccccc21 [CARBAMAZEPINE] | 7 µL/min/mg | 6 µL/min/mg
42 | COc1ccc(CCC(=O)NC(=N)N[C@H](CC2CCCCC2)C(=O)Nc2cc(S(=O)(=O)N(C)C)ccc2C)cc1OC | 234 µL/min/mg | 169 µL/min/mg
43 | COc1ccc(CC(=O)NC(=N)N[C@H](CC(C)C)C(=O)Nc2cc(S(N)(=O)=O)ccc2C)cc1OC | 102 µL/min/mg | 160 µL/min/mg
44 | CCC[C@@H](NC(=N)NC(=O)Cc1ccc(OC)c(OC)c1)C(=O)Nc1cc(S(N)(=O)=O)ccc1C | 266 µL/min/mg | 89.3 µL/min/mg
45 | COc1ccc(CC(=O)NC(=N)N[C@H](CC2CC2)C(=O)Nc2cc(S(N)(=O)=O)ccc2C)cc1OC | 229 µL/min/mg | 108 µL/min/mg
46 | COc1ccc(CC(=O)NC(=N)N[C@H](CN2CCOCC2)C(=O)Nc2cc(S(N)(=O)=O)ccc2C)cc1OC | 49.1 µL/min/mg | 31.8 µL/min/mg
47 | Cc1ccc(S(=O)(=O)N(C)C)cc1NC(=O)[C@@H](CC1CCCCC1)NC(=N)NC(=O)Cc1ccccc1C(F)(F)F | 244 µL/min/mg | 208 µL/min/mg
48 | CNS(=O)(=O)c1ccc(C)c(NC(=O)[C@@H](CC(C)C)NC(=N)NC(=O)Cc2ccc(OC)c(OC)c2)c1 | 188 µL/min/mg | 239 µL/min/mg
49 | COc1ccc(CC(=O)NC(=N)N[C@@H](C(=O)Nc2cc(S(N)(=O)=O)ccc2C)C(C)(C)C)cc1OC | 211 µL/min/mg | 108 µL/min/mg
50 | CNS(=O)(=O)c1ccc(C)c(NC(=O)[C@@H](CC2CCCCC2)NC(=N)NC(=O)Cc2ccc(OC)c(Cl)c2)c1 | 273 µL/min/mg | 295 µL/min/mg
51 | Cc1ccc(S(=O)(=O)N(C)C)cc1NC(=O)[C@@H](CC1CCCCC1)NC(=N)NC(=O)Cc1ccc2ccccc2c1 | 200 µL/min/mg | 169 µL/min/mg
52 | CNS(=O)(=O)c1ccc(C)c(NC(=O)[C@@H](CC2CCCCC2)NC(=N)NC(=O)Cc2cc(C(F)(F)F)cc(C(F)(F)F)c2)c1 | 187 µL/min/mg | 175 µL/min/mg
53 | Cc1ccc(S(=O)(=O)N(C)C)cc1NC(=O)[C@@H](CC1CCCCC1)NC(=N)NC(=O)Cc1ccc(F)c(F)c1 | 264 µL/min/mg | 163 µL/min/mg
54 | CNS(=O)(=O)c1ccc(C)c(NC(=O)[C@@H](CC2CCCCC2)NC(=N)NC(=O)Cc2ccc(OC)c(C(F)(F)F)c2)c1 | 215 µL/min/mg | 188 µL/min/mg
55 | COc1ccc(CC(=O)NC(=N)N[C@@H](C(=O)Nc2cc(S(N)(=O)=O)ccc2C)C2=CCC=CC2)cc1OC | 178 µL/min/mg | 138 µL/min/mg
56 | COc1ccc(CC(=O)NC(=N)N[C@@H](C(=O)Nc2cc(S(N)(=O)=O)ccc2C)C(C)C)cc1OC | 174 µL/min/mg | 64.3 µL/min/mg
